Laboratory results: patent US4153710A, “N-(4-[2-(pyrazole-1-carbonamide)-ethyl]-benzenesulphonyl)-urea” (Starogardzkie Zaklady Farmaceutyczne POLFA, priority 1976, dated 1979)

Assays:
[1] = system: oxygen consumption in mitochondria of a rat's liver; test: Oxygen consumption of rat liver mitochondria; assay type: biochemical
Experimental: 2-oxoglutaran 2 mM, ADP 1 mM, mitochondria | protein 4 mg/m. […] The

[2] = system: free fatty acids concentration; test: Free fatty acids in normal men volunteers (Table 7); assay type: in vivo; details: oral 5 mg SPC-5002 or 12.5 mg Glibornuride
Experimental: (§1) When administered to normal men volunteers it has been stated that 60 minutes after the administration of SPC-5002 a 5 mg oral dose causes the decrease in blood-glucose of 28% in comparision to the starting value and after 90 minutes it reaches 33% (Table 7). Whereas Glibornuride employed in a dose 2.5 times as big on peak of its activity decreases the glucose blood level only of 19%. It can clearly be noticed that there is a positive correlation between the glycemic and insulin level curves. Both examined preparations cause a significant decrease in free fatty acids in blood. […] 60 and 90 minutes after the SPC-5002 administration, the blood-glycose level is decreased to 33 and 52% while in the Placebo group it is maintained in the range of 13-14%.
(§2) The comparison of glucose, insulin and free fatty acids concentration in
(§3) normal men after the oral administration of 5 mg of SPC-5002 or 12.5 mg

[3] = Oral toxicity in rats (LD50); details: rat, in vivo
insulin concentration = test: Insulin in normal men volunteers (Table 7); assay type: in vivo; details: oral 5 mg SPC-5002 or 12.5 mg Glibornuride
Experimental: as §1, §2, §3

[4] = system: blood-glucose concentration; test: ED30 oral hypoglycemic dose in rabbits (Table 2); assay type: in vivo; details: Oryctolagus cuniculus, read-out: Effective oral doses ED30
Experimental: (§4) The hypoglycemic activity of N-{4-[2-(pyrazole-1-carbonamide)-ethyl]-benzenesulphonyl}-ureas prepared according to the present invention can be noticed after their oral administration to mice, rats, rabbits and people and when determining the glucose concentration in blood with a known enzymatic method using glucose oxidase.
(§5) (Table 2). […] It has been observed that even 9 hours after the administration of one dose of SPC-5002 to rats, the glucose level in blood was decreased, whereas in the case of Glibornuride the glucose level comes back to its normal value in 6 hours from the time of the administration.

[5] = system: blood-glucose concentration; test: Hypoglycemic activity in three animal species versus Glibornuride; assay type: in vivo, mice, rats, rabbits; details: parenteral and oral
Experimental: as §4, §5

[6] = system: oxidizing phosphorylation in mitochondria of a rat's liver; test: Oxidizing phosphorylation of rat liver mitochondria; assay type: biochemical
Experimental: 2-oxoglutaran 2 mM, ADP 1 mM, mitochondria | protein 4 mg/m. […] The | oxidizing phosphorylation speed was determined by means of the measuremen | of hydrogen ion consumption. The calcium transmission to mitochondria was […]

glucose concentration = test: Blood glucose in normal men after a meal (Table 8); assay type: in vivo; details: for blood-glycose level decrease: normal men after meal; for Glucose concentration / % of changes in glucose concentration: meal, oral 10 mg
Experimental: as §4, §1
The comparison of glucose concentration changes in voluntary-normal men
eaten a meal and the oral administration of 10 mg of SPC-5002 or Placebo

[7] = system: blood-glucose concentration; test: Decrease in blood-glucose concentration in rats after oral dose (Table 1; ED30 rats Table 2); assay type: in vivo; details: Rattus norvegicus, oral, read-out: Effective oral doses ED30
How it was run: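 Compounds were dosed orally to rats, and blood glucose was measured enzymatically with glucose oxidase. Effects are expressed as decrease in blood glucose, with ED30 as the dose effective for a 30% reduction.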

[8] = system: blood-glucose concentration; test: Blood-glucose time course up to 24 hours in rats (Table 3); assay type: in vivo; details: for glucose concentration in blood, average: oral 4 mg/kg
Experimental: as §4, §5
The comparison of SPC-5002 and Glibornuride effect on changes in
concentration of rats in time up to 24 hours from the moment of the
in an oral dose containing 4 mg/kg body weight

[9] = Acute, subacute and protracted toxicity (6 months); assay type: in vivo
[10] = Oral toxicity in mice (LD50); details: mouse, in vivo
[11] = system: calcium transmission in mitochondria of a rat's liver; test: Calcium transmission to rat liver mitochondria; assay type: biochemical; details: for % of inhibition, calcium transmission: medium with CaCl 300 nmoles/ml
Experimental: Sucrose 170mM, KCl 10 mM, MgCl2 […], K2 HPO 5 mM, EGTA 0.01 mM
2-oxoglutaran 2 mM, ADP 1 mM, mitochondria
protein 4 mg/m. Temperature 25° C.
of hydrogen ion consumption. The calcium transmission to mitochondria was
studied with two methods; in a continuous way with a Radiometer calcium
electrode type F2112 or with an isotopic method.
*The medium contained Ca Cl 300 nmoles/ml.

[12] = system: blood-glucose concentration; test: ED30 oral hypoglycemic dose in mice (Table 2); assay type: in vivo; details: Mus musculus, oral, read-out: Effective oral doses ED30
Experimental: as §4, §5

SMILES: Cc1ccn(C(=O)NCCc2ccc(S(=O)(=O)NC(=O)NC3CCCCC3)cc2)n1 [SPC-5002, N-{4-[2-(3-methylpyrazole-1-carbonamide)-ethyl]-benzenesulphonyl}-N'-cyclohexylourea]
- effect on oxidation ([1]; 0.05 nM): no effect
- % of inhibition, oxygen consumption ([1]; concentration 0.05 n M): 0%
- % of inhibition, oxygen consumption ([1]; concentration 0.1 n M): 12%
- % of inhibition, oxygen consumption ([1]; concentration 0.3 n M): 21%
- % of inhibition, oxygen consumption ([1]; concentration 0.5 n M): 34%
- % of inhibition, oxygen consumption ([1]; concentration 0.7 n M): 47%
- % of inhibition, oxygen consumption ([1]; concentration 1.0 n M): 69%
- Ki ([1]; rat liver mitochondria): 750 µM
- Free fatty acids concentration ([2]; 0 mins (empty stomach)): 0.63 mEq/1000 cc
- Free fatty acids concentration ([2]; 30 mins): 0.48 mEq/1000 cc
- Free fatty acids concentration ([2]; 60 mins): 0.46 mEq/1000 cc
- Free fatty acids concentration ([2]; 90 mins): 0.48 mEq/1000 cc
- Free fatty acids concentration ([2]; 120 mins): 0.51 mEq/1000 cc
- Free fatty acids concentration ([2]; 180 mins): 0.52 mEq/1000 cc
- LD50 [3]: > 15000 mg/kg
- Insulin concentration (insulin concentration; 0 mins (empty stomach)): 4.0 μU/cc
- Insulin concentration (insulin concentration; 30 mins): 9.2 μU/cc
- Insulin concentration (insulin concentration; 60 mins): 13.5 μU/cc
- Insulin concentration (insulin concentration; 90 mins): 7.3 μU/cc
- Insulin concentration (insulin concentration; 120 mins): 5.0 μU/cc
- Insulin concentration (insulin concentration; 180 mins): 3.2 μU/cc
- ED30 [4]: 5.5 mg/kg
- hypoglycemic activity relative to Glibornuride [5]: about twice as active as Glibornuride
- effect on oxidizing phosphorylation ([6]; 0.05 nM): no effect
- % of inhibition, oxidizing phosphorylation ([6]; concentration 0.05 n M): 0%
- % of inhibition, oxidizing phosphorylation ([6]; concentration 0.1 n M): 15%
- % of inhibition, oxidizing phosphorylation ([6]; concentration 0.3 n M): 21%
- % of inhibition, oxidizing phosphorylation ([6]; concentration 0.5 n M): 38%
- % of inhibition, oxidizing phosphorylation ([6]; concentration 0.7 n M): 63%
- % of inhibition, oxidizing phosphorylation ([6]; concentration 1.0 n M): 74%
- Ki ([6]; rat liver mitochondria): 600 µM
- blood-glycose level decrease (glucose concentration; 60 minutes): 33%
- blood-glycose level decrease (glucose concentration; 90 minutes): 52%
- glucose increase vs starting value (glucose concentration; normal men, 30 minutes after the meal): 34%
- Glucose concentration (glucose concentration; normal men, 0 mins (empty stomach)): 89 mg/100 cc
- % of changes in glucose concentration (glucose concentration; normal men, 30 mins): +34%
- Glucose concentration (glucose concentration; normal men, 30 mins): 119 mg/100 cc
- % of changes in glucose concentration (glucose concentration; normal men, 60 mins): -33%
- Glucose concentration (glucose concentration; normal men, 60 mins): 60 mg/100 cc
- % of changes in glucose concentration (glucose concentration; normal men, 90 mins): -52%
- Glucose concentration (glucose concentration; normal men, 90 mins): 43 mg/100 cc
- % of changes in glucose concentration (glucose concentration; normal men, 120 mins): -21%
- Glucose concentration (glucose concentration; normal men, 120 mins): 70 mg/100 cc
- % of changes in glucose concentration (glucose concentration; normal men, 180 mins): 0%
- Glucose concentration (glucose concentration; normal men, 180 mins): 89 mg/100 cc
- ED30 [7]: 2.2 mg/kg
- duration of decreased blood glucose after one dose ([8]; one dose): ≥ 9 h
- duration of hypoglycemic activity relative to Glibornuride ([8]; one dose): longer hypoglycemic activity than the administration of Glibornuride
- glucose concentration in blood, average ([8]; 0 h): 82 mg/100 cc
- glucose concentration in blood, average ([8]; 1 h): 58 mg/100 cc
- glucose concentration in blood, average ([8]; 3 h): 45 mg/100 cc
- glucose concentration in blood, average ([8]; 6 h): 65 mg/100 cc
- glucose concentration in blood, average ([8]; 9 h): 70 mg/100 cc
- glucose concentration in blood, average ([8]; 24 h): 85 mg/100 cc
- changes in haematopoietic system ([9]; 6 months administration): No changes in the haematopoietic system
- effect on liver and kidneys ([9]; 6 months administration): did not handicap the activities of the liver and kidneys
- general number of white blood corpuscles ([9]; 6 months administration): did not influence the general number of white blood corpuscles
- toxicity ([9]; acute, subacute and protracted toxicity): extremely low toxicity
- body weight, consumption of food and water ([9]; compared with control group): did not reveal any differences between the control group and the group under examination
- LD50 [10]: > 20000 mg/kg
- % of inhibition, calcium transmission ([11]; concentration 0.05 n M): 8%
- Calcium transmission / Oxide consumption (ratio of inhibition) ([11]; concentration 0.1 n M): 1.75
- % of inhibition, calcium transmission ([11]; concentration 0.1 n M): 21%
- Calcium transmission / Oxide consumption (ratio of inhibition) ([11]; concentration 0.3 n M): 1.42
- % of inhibition, calcium transmission ([11]; concentration 0.3 n M): 30%
- Calcium transmission / Oxide consumption (ratio of inhibition) ([11]; concentration 0.5 n M): 1.55
- % of inhibition, calcium transmission ([11]; concentration 0.5 n M): 53%
- Calcium transmission / Oxide consumption (ratio of inhibition) ([11]; concentration 1.0 n M): 0.99
- % of inhibition, calcium transmission ([11]; concentration 1.0 n M): 68%
- Ki ([11]; rat liver mitochondria): 450 µM
- preference of inhibition: calcium transmission versus oxidizing processes ([11]; rat liver mitochondria): preferential inhibiting of calcium transmission
- Ki ratio SPC-5002 / Glibenclamide, calcium transmission ([11]; ratio of inhibitor constants): 10
- ED30 [12]: 1.9 mg/kg
